Reference: PubChem BioAssay (NCI)
Where “and” joins values, the source holds several entries; their conditions need not be identical. Equal entries are not always repeated.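 96-well plates; 48 h exposure; 5 concentrations. Endpoints by linear interpolation between flanking doses. Not reached: highest tested concentration assigned. The concentration for 50% growth inhibition is given as GI50. Definition used: TGI = concentration required for complete inhibition of growth.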

Columns and labels:
Assay in all cases: growth of human tumour cells (NCI), 48 h
[1] = system: A498 renal
[2] = system: COLO 205 colon
[3] = system: HL-60(TB) leukemia
[4] = system: HS 578T breast
[5] = system: KM12 colon
[6] = system: NCI-H226 lung
[7] = system: OVCAR-4 ovarian
[8] = system: SF-295 CNS
[9] = system: SW-620 colon
[10] = system: U251 CNS

Row | SMILES | GI50 [1] | TGI [1] | GI50 [2] | TGI [2] | GI50 [3] | TGI [3] | GI50 [4] | TGI [4] | GI50 [5] | TGI [5] | GI50 [6] | TGI [6] | GI50 [7] | TGI [7] | GI50 [8] | TGI [8] | GI50 [9] | TGI [9] | GI50 [10] | TGI [10]
1 | Cc1ccc(/C(=N/NS(=O)(=O)c2cc(C)c(Cl)cc2Cl)Sc2cc(Cl)c(C)cc2S(N)(=O)=O)cc1 | > 100 µM | > 100 µM | > 100 µM | > 100 µM | 70 µM | > 100 µM | > 100 µM | > 100 µM | > 100 µM | > 100 µM | > 100 µM | > 100 µM | > 100 µM | > 100 µM | > 100 µM | > 100 µM | > 100 µM | > 100 µM | > 100 µM | > 100 µM
2 | CC[C@]12CN3CCc4c([nH]c5ccccc45)[C@@](C(=O)OC)(c4cc5c(cc4OC)N(C)[C@H]4[C@@](O)(C(=O)OC)[C@H](OC(C)=O)[C@]6(CC)C=CCN7CC[C@]54[C@@H]76)CC(C3)[C@H]1O2 (stereo partly specified) | 0.241 µM | – | 0.092 µM | 1.03 µM and 0.387 µM | 0.088 µM | – | – | 72.3 µM | 0.105 µM | – | 0.462 µM | > 50 µM | 0.327 µM | > 100 µM | – | > 12.3 µM | 0.155 µM | > 100 µM | 0.137 µM | 34 µM and > 50 µM
3 | NC(=O)c1cn(C2CC(O)C(CO)O2)c2ncnc(N)c12 (stereo unspecified) | 1.97 µM | 7.93 µM | 5.01 µM | 24 µM | 2.73 µM | 20 µM | 2.27 µM | 17.3 µM | 5.18 µM | 28.4 µM | 3.19 µM | 17.4 µM | 6.26 µM | > 100 µM | 12.6 µM | > 76.6 µM | 2.58 µM | 20.6 µM | 17.7 µM | > 100 µM
4 | CC1(C)C(=O)/C=C\C(=O)C(C)(C)C2=CC=C(O2)C(C)(C)C(=O)C(Br)C(Br)C(=O)C(C)(C)C2=CC=C1O2 (stereo unspecified) | – | > 100 µM | – | > 100 µM | – | 18.1 µM | – | > 100 µM | – | > 100 µM | – | > 100 µM | – | > 100 µM | – | > 100 µM | – | 31.1 µM | – | > 81.8 µM
5 | Cc1nnn(C)c1-c1cnc2c3ccc(C(C)(C)O)cc3n([C@H](c3ccccc3)C3CCOCC3)c2c1 | < 0.0381 µM | 0.581 µM | < 0.01 µM | 30.1 µM | < 0.01 µM | 48.1 µM | < 0.01 µM | > 100 µM | 0.141 µM | > 91.4 µM | 0.356 µM | 23.4 µM | 0.033 µM | > 100 µM | 0.0555 µM | 20.5 µM | 7 µM | > 72.1 µM | 0.27 µM | > 47.5 µM
6 | COc1cccc2c1C(=O)c1c(O)c3c(c(O)c1C2=O)C[C@](O)(C(=O)CO)C[C@H]3O[C@@H]1C[C@@H](NC(=O)CCCN(C)C2(c3ccc(F)cc3)CC3CCC2C3)[C@H](O)[C@@H](C)O1 (stereo partly specified) | 5.31 µM | 12.5 µM | 0.712 µM | 1.44 µM | 1.17 µM | 3.01 µM | 6.78 µM | 20.9 µM | – | – | 3.53 µM | 15.7 µM | 0.844 µM | 1.61 µM | 0.805 µM | 1.6 µM | 0.641 µM | 1.49 µM | 0.793 µM | 1.52 µM
7 | OCC1OC(N2C=C(c3nc4ccccc4s3)C3C=CC=CC32)C(O)C(O)C1O (stereo unspecified) | 16 µM | 38.3 µM | 9.38 µM | 20.9 µM | 17.1 µM | > 50 µM | 20.1 µM | > 50 µM | 11 µM | 24.3 µM | 14.5 µM | > 50 µM | – | – | 13.4 µM | 37.9 µM | 21 µM | > 50 µM | 16.6 µM | > 50 µM
